Source: patent EP0309789A1, “4-Oxo-3-quinolinecarboxylic acids useful as antibacterial agents and preparation thereof” (STERLING WINTHROP INC., priority 1987, dated 1989)
Values after ≈ are worked out from the molar mass of the structure shown. Read-outs that look alike come from different tables or passages of the source.

What was measured:
Escherichia coli = test: In vitro antimicrobial activity, microplate dilution procedure (MIC); type: cell-based
Method: (§1) The in vitro antimicrobial activity of the compounds of the invention was determined by a microplate dilution procedure. […] Resulting suspensions were diluted 1/10 in the appropriate broth or used undiluted for the inoculum. […] The compounds were then serially diluted two-fold in DMSO to give a working stock concentration range plate. The last row of wells was left compound-free receiving only DMSO to serve as a growth control. Five mcl from each well of the working stock plate was transferred to corresponding wells of a separate plate containing 95 mcl/well of the appropriate broth. All dilutions were made with either an automated dilutor or manually. […] Plates were incubated as described above and read for visible growth. The minimal inhibitory concentration (MIC: expressed in mcg/ml) of each compound tested against each test microorganism was determined as the lowest concentration of compound which prevents visible microbial growth.

Micrococcus luteus = test: as above; type: cell-based
Method: as §1

Pseudomonas aeruginosa = test: as above; type: cell-based; conditions: read-out: PA MIC
Method: as §1

Staphylococcus aureus = test: as above; type: cell-based; conditions: for activity relative to compound R / activity relative to compounds P and Q: from Table I; for MIC: Staphylococcus aureus
Method: as §1

Streptococcus faecalis = test: as above; type: cell-based; conditions: Enterococcus faecalis
Method: as §1

Streptococcus pneumoniae = test: as above; type: cell-based
Method: as §1

Bacteroides fragilis = test: In vitro antimicrobial activity, microplate dilution procedure (MIC), anaerobic; type: cell-based
Method: as §1

E. coli = test: In vivo antibacterial activity in infected mice (protective dose); conditions: Mouse, one-half hour postinfection, deaths recorded for seven days; for E. coli (PD₅₀) sc: subcutaneous
Method: (§2) The in vivo antibacterial activity of the compounds of the invention was determined in female mice, 18-20 grams each. Aqueous solutions of the compounds to be tested were prepared by dissolving the free acid form in dilute sodium hydroxide and diluting the solution with distilled water to the desired concentration. Cultures of E. coli were grown in brain heart infusion broth, and the mice were inoculated intraperitoneally with 0.5 ml of the bacterial test inoculum suspended in saline. Cultures of Staph. aureus were thawed from frozen pooled stocks and mixed with 5% mucin. A 0.5 ml preparation was used to infect mice by i.p. inoculation. The mice were medicated subcutaneously (sc) or orally (po) with 0.5 ml of the test compound solution one-half hour postinfection. Deaths were recorded daily for seven days. Fifty percent protective dose values (PD₅₀) were calculated using probit analysis.

Staph. aureus = test: as above; conditions: for Staph. aureus (PD₅₀) po / Staph. aureus (PD₅₀) sc: Mouse, one-half hour postinfection, deaths recorded for seven days; for Staph. aureus (PD₅₀) sc: subcutaneous; for activity relative to the prior art compounds: Staph. aureus, in vivo mouse, from Table II
Method: as §2

[1] = Serum levels in monkeys after oral dosing; type: in vivo; conditions: 25 mg/kg oral dosing; for half-life: monkey
Method: In monkeys, compounds A and C gave high and prolonged serum levels after 25 mg/kg oral dosing.

[2] = Streptococcus faecalis, read-out: SF MIC
[3] = Strep. pneumoniae, read-out: MIC

Row | Compound | MIC (Escherichia coli; read-out: EC MIC) [µg/mL] | MIC (Micrococcus luteus; read-out: ML MIC) [µg/mL] | MIC (Pseudomonas aeruginosa) [µg/mL] | activity relative to compound R (Staphylococcus aureus; Staph. aureus) | activity relative to compounds P and Q (Staphylococcus aureus; Staph. aureus) | MIC (Staphylococcus aureus; read-out: SA MIC) [µg/mL] | MIC (Streptococcus faecalis; [2]) [µg/mL] | MIC (Streptococcus pneumoniae; read-out: SP MIC) [µg/mL] | MIC (Bacteroides fragilis; anaerobic, read-out: BF MIC) [µg/mL] | E. coli (PD₅₀) po (E. coli) [mg/kg] | E. coli (PD₅₀) sc (E. coli) [mg/kg] | Staph. aureus (PD₅₀) po (Staph. aureus) [mg/kg] | Staph. aureus (PD₅₀) sc (Staph. aureus) [mg/kg] | activity relative to the prior art compounds (Staph. aureus) | further results
1 | Cc1cc(-c2c(F)c(F)c3c(=O)c(C(=O)O)cn(C4CC4)c3c2F)cc(C)n1 [B, 1-Cyclopropyl-7-(2,6-dimethyl-4-pyridinyl)-5,6,8-trifluoro-1,4-dihydro-4-oxo-3-quinolinecarboxylic acid] | 0.125 (≈ 0.322 µM) | 0.5 (≈ 1.29 µM) | 8 (≈ 20.6 µM) | four times as active | thirty times as active | 0.008 (≈ 0.0206 µM) | 0.06 (≈ 0.155 µM) | 0.03 (≈ 0.0773 µM) | 0.5 (≈ 1.29 µM) | 10.8 | 8.9 | 0.14 | 0.08 | 9-30 times | 
2 | Cc1cc(-c2c(F)cc3c(=O)c(C(=O)O)cn(C4CC4)c3c2F)cc(C)n1 [C, 1-Cyclopropyl-6,8-difluoro-7-(2,6-dimethyl-4-pyridinyl)-1,4-dihydro-4-oxo-3-quinolinecarboxylic acid] | 0.06 (≈ 0.162 µM) | 0.25 (≈ 0.675 µM) | 4 (≈ 10.8 µM) | four times as active | thirty times as active | 0.008 (≈ 0.0216 µM) | 0.06 (≈ 0.162 µM) | 0.016 (≈ 0.0432 µM) | 0.125 (≈ 0.338 µM) | 5.7 | 6.1 | 0.09 | 0.06 | 9-30 times | maximum concentration [1]: 34 µg/mL; time of maximum concentration [1]: 5.5 h; half-life [1]: 20 h
3 | Cc1cc(-c2cc3c(cc2F)c(=O)c(C(=O)O)cn3C2CC2)cc(C)n1 [Compound A, 1-Cyclopropyl-7-(2,6-dimethyl-4-pyridinyl)-6-fluoro-1,4-dihydro-4-oxo-3-quinolinecarboxylic acid] | 0.03 (≈ 0.0851 µM) | 0.5 (≈ 1.42 µM) | 2 (≈ 5.68 µM) | four times as active | thirty times as active | 0.008 (≈ 0.0227 µM) | 0.06 (≈ 0.17 µM) | 0.03 (≈ 0.0851 µM) | 0.5 (≈ 1.42 µM) | 3.8 | 3.1 | 0.20 | 0.08 | 9-30 times | maximum concentration [1]: 13 µg/mL; time of maximum concentration [1]: 7 h; half-life [1]: 13 h
4 | Cc1cc(-c2c(F)c(Sc3ccccc3)c3c(=O)c(C(=O)O)cn(C4CC4)c3c2F)cc(C)n1 [Example 6(c), 1-cyclopropyl-7-(2,6-dimethyl-4-pyridinyl)-6,8-difluoro-5-(phenylthio)-1,4-dihydro-4-oxo-3-quinolinecarboxylic acid] |  |  |  |  |  |  |  |  |  |  |  |  |  |  | MIC (Micrococcus luteus; M. luteus, read-out: MIC): 16 µg/mL (≈ 33.4 µM); MIC (Staphylococcus aureus; Staph. aureus, read-out: MIC): 1 µg/mL (≈ 2.09 µM); MIC (Streptococcus faecalis; Strep. faecalis, read-out: MIC): 16 µg/mL (≈ 33.4 µM); MIC (Streptococcus pneumoniae; [3]): 2 µg/mL (≈ 4.18 µM); MIC (Bacteroides fragilis; B. fragilis, read-out: MIC): 16 µg/mL (≈ 33.4 µM)
5 | Cc1cc(-c2c(F)cc3c(=O)c(C(=O)O)cn(C4CC4)c3c2SCc2ccccc2)cc(C)n1 [Example 7, 1-cyclopropyl-7-(2,6-dimethyl-4-pyridinyl)-6-fluoro-1,4-dihydro-4-oxo-8-(benzylthio)-3-quinolinecarboxylic acid] |  |  |  |  |  |  |  |  |  |  |  |  |  |  | MIC (Escherichia coli; E. coli, read-out: MIC): 4 µg/mL (≈ 8.43 µM); MIC (Micrococcus luteus; M. luteus, read-out: MIC): 64 µg/mL (≈ 135 µM); MIC (Staphylococcus aureus; Staph. aureus, read-out: MIC): < 0.125 µg/mL; MIC (Streptococcus faecalis; Strep. faecalis, read-out: MIC): 2 µg/mL (≈ 4.21 µM); MIC (Streptococcus pneumoniae; [3]): 2 µg/mL (≈ 4.21 µM); MIC (Bacteroides fragilis; B. fragilis, read-out: MIC): 64 µg/mL (≈ 135 µM)
6 | CCn1cc(C(=O)O)c(=O)c2ccc(-c3cc(C)nc(C)c3)cc21 [P, 7-(2,6-Dimethyl-4-pyridinyl)-1-ethyl-1,4-dihydro-4-oxo-3-quinolinecarboxylic acid, reference compound] | 0.25 (≈ 0.776 µM) | 8 (≈ 24.8 µM) | 32 (≈ 99.3 µM) |  |  | 0.25 (≈ 0.776 µM) | 1 (≈ 3.1 µM) | 2 (≈ 6.2 µM) | 16 (≈ 49.6 µM) | 17.9 | 13.5 | 3.8 | 2.37 |  | 
7 | O=C(O)c1cn(C2CC2)c2cc(N3CCNCC3)c(F)cc2c1=O [Q, 1-Cyclopropyl-6-fluoro-7-(1-piperazinyl)-1,4-dihydro-4-oxo-3-quinolinecarboxylic acid, reference compound] | 0.004 (≈ 0.0121 µM) | 2 (≈ 6.04 µM) | 0.125 (≈ 0.377 µM) |  |  | 0.25 (≈ 0.754 µM) | 0.5 (≈ 1.51 µM) | 0.25 (≈ 0.754 µM) | 2 (≈ 6.04 µM) |  |  |  |  |  | 
8 | CCn1cc(C(=O)O)c(=O)c2cc(F)c(-c3cc(C)nc(C)c3)cc21 [R, 7-(2,6-Dimethyl-4-pyridinyl)-1-ethyl-6-fluoro-1,4-dihydro-4-oxo-3-quinolinecarboxylic acid, reference compound] | 0.06 (≈ 0.176 µM) | 0.5 (≈ 1.47 µM) | 4 (≈ 11.8 µM) |  |  | 0.03 (≈ 0.0881 µM) | 0.25 (≈ 0.735 µM) | 0.25 (≈ 0.735 µM) | 2 (≈ 5.88 µM) | 8.24 | 5.39 | 1.38 | 0.71 |  | 
